# According to patent US8217014B2, “Pharmaceutical composition for treatment of blood clotting disorder” (National University Corporation Nagoya University, priority 2006, dated 2012):
# Several values for one entry are separate records, joined by “and”; a condition that tells them apart may be missing. Equal entries are not always repeated.
# Key:
# HCV = test: Eradication of HCV in HCV-positive patients with hemophilia; assay type: in vivo, human
# Experimental: (§1) Ribavirin was orally administered, while the interferon was intravenously administered.
# (§2) Interferon α-2b alone was administered to the patients Nos. 1, 2, 3, and 5, prior to the combined administration of this Example 1. In the interferon single dosing period, the interferon was administered to the patients Nos. 1, 2, 3, and 5 every day with the dosage of 6 MU (million units) per day for the first 2 weeks and 3 times per week for the subsequent 22 weeks. […] In the combined administration of this Example 1, Intron A was administered to all the patients every day with the dosage of 6 MU per day for the first 2 weeks and 3 times per week for the subsequent 22 weeks.
# The HCV-RNA level was measured at the start of treatment with Amplicor HCV Assay, version 2.0 (Roche Diagnostic Systems).
# Eradication of HCV was considered positive when the absence of serum HCVRNA was maintained for 24 weeks after the treatment was completed.
# [1] = tested on: HCV-positive patients with hemophilia; test: Bleeding requiring treatment and use of clotting factors in hemophilia patients (patient logs); assay type: in vivo, human; conditions: 47 hemophilia patients with hepatitis C
# [2] = tested on: coagulation factor X mRNA; test: mRNA expression of coagulation factor X, real-time quantitative RT-PCR, hepatic cell lines; assay type: cell-based; conditions: ribavirin 150 μg/ml in the presence of interferon α-2b 0.75 μg/ml; data not shown
# Experimental: (§3) The mRNA expression levels of the coagulation factors VII and X and prothrombin were measured according to the protocols of real-time quantitative RT-PCR with ABI Prism 7700 Sequence Detection (Perkin Elmer Biosystems, Foster City, Calif., USA) and SYBR Green PCR kit (Perkin Elmer Biosystems). The real-time quantitative RT-PCR was repeated twice. The following […] were used for determination of the mRNA of the genes.
# [3] = tested on: coagulation factor VII mRNA in HepG2 cell line; test: mRNA expression of coagulation factor VII, real-time quantitative RT-PCR, HepG2 cell line; assay type: cell-based, human; conditions: ribavirin 150 μg/ml in the presence of interferon α-2b 0.75 μg/ml, 48 hours, p<0.02
# Experimental: as §3
# [4] = tested on: prothrombin time (PT) in the plasma; test: Prothrombin time (PT) in the plasma of chronic hepatitis C patients with or without hemophilia; assay type: in vivo, human; conditions: for PT Increase Rate: 12 weeks after start versus before; for PT After Therapy: 12 weeks after start
# Experimental: Of these patients, 9 patients were with hemophilia and 27 hepatitis patients were without hemophilia. Pegintron was administered to all the patients once a week with the dosage of 1.5 μg/Kg for 48 weeks, whereas Rebetol was simultaneously administered to the 9 hemophilia patients with the dosage of Administration Example 1 (600 mg to 800 mg per day).
# The prothrombin time (PT) in the plasma was measured for the patients before the start of the dosing and 12 weeks after the start of the dosing, for the purpose of evaluation of the coagulation activity.
# coagulation factor VII = test: Coagulation activity of coagulation factor VII in the plasma of hemophilia patients
# prothrombin mRNA = test: mRNA expression of prothrombin, real-time quantitative RT-PCR, hepatic cell lines; assay type: cell-based; conditions: ribavirin 150 μg/ml in the presence of interferon α-2b 0.75 μg/ml; data not shown
# Experimental: as §3
# [5] = tested on: coagulation factor VII mRNA in hepatic parenchymal cell line; test: mRNA expression of coagulation factor VII, real-time quantitative RT-PCR, normal hepatic parenchymal cell line; assay type: cell-based; conditions: ribavirin 150 μg/ml in the presence of interferon α-2b 0.75 μg/ml, 48 hours, p<0.01
# Experimental: as §3
# coagulation factor X = test: Coagulation activity of coagulation factor X in the plasma; assay type: in vivo, human; conditions: before and after the start of the combined dosing, data not shown
# [6] = tested on: HCV-positive patients with hemophilia; test: Bleeding requiring treatment and use of clotting factors in hemophilia patients (patient logs); assay type: in vivo, human
# Experimental: as §1, §2
# The use of clotting factors was assessed by patient logs. The clotting factors are generally not used for patients with mild hemophilia. The doses (mean value) of the clotting factors before the combined dosing period of this Example 1, during the combined dosing period, and after the combined dosing period were evaluated. A significant difference at P<0.05 was evaluated by (paired) t-test. Ability to perform activities of daily living was assessed by interview.
# [7] = 4 weeks after start of combined dosing, 9 patients
molecule,measurement,setting,value
interferon α-2b,Elimination of HCV in interferon single dosing period,"HCV; interferon α-2b alone, 6 MU per day for 2 weeks then 3 times per week for 22 weeks, patients Nos. 1, 2, 3, 5",not eliminated
same,reduction of the bleeding tendency by single interferon dosing,[1],No such reduction
"NC(=O)c1ncn([C@@H]2O[C@H](CO)[C@@H](O)[C@H]2O)n1 [ribavirin, 1-β-D-ribofuranosyl-1,2,4-triazole-3-carboxamide]",Eradication of HCV,"HCV; oral ribavirin 600-800 mg/day combined with interferon α-2b (Intron A) for 24 weeks, YES = absence of serum HCV-RNA maintained 24 weeks after treatment, per patient (Nos. 1-8)",YES
same,mRNA induction of the coagulation factor X,[2],No significant induction
same,mRNA induction of the coagulation factor VII,[3],about 3 times
same,PT Increase Rate,[4]; Hemophilia Group n = 9,9.4 ± 8.4%
same,PT After Therapy,"[4]; Hemophilia Group n = 9, Rebetol 600-800 mg/day + Pegintron 1.5 μg/Kg once a week, before therapy 90.0 ± 12.2%",99.4 ± 14.3%
same,PT Increase Rate,[4]; Non-Hemophilia Group n = 27,5.4 ± 12.6%
same,PT After Therapy,"[4]; Non-Hemophilia Group n = 27, Pegintron 1.5 μg/Kg once a week, combined administration, before therapy 94.9 ± 14.4%",100.0 ± 16.8%
same,Factor VII coagulation activity increase in the 2 patients without significant increase,"coagulation factor VII; 2 of the 9 patients (one HIV positive, one hepatitis C and hepatitis B virus positive)",5% and 8%
same,"Factor VII coagulation activity increase, maximum",coagulation factor VII; [7],28%
same,"Factor VII coagulation activity increase, minimum",coagulation factor VII; [7],5%
same,Factor VII Clotting Activity Increase Rate,"coagulation factor VII; 4 weeks after start versus before start of combined dosing, 9 hemophilia patients, p<0.04",15.7 ± 8.8%
same,Factor VII Clotting Activity After Start of Therapy,"coagulation factor VII; plasma, 4 weeks after start of combined dosing (ribavirin 600-800 mg/day + interferon α-2b), 9 hemophilia patients, before start 86.3 ± 7.6%",102.0 ± 10.3%
same,mRNA induction of prothrombin,prothrombin mRNA,No significant induction
same,mRNA induction of the coagulation factor VII,[5],about 4 times
same,change in coagulation activity of the coagulation factor X,coagulation factor X,No significant change
same,monthly mean dosage of the clotting factors in the combined dosing period,"[6]; 5 patients with moderate or severe hemophilia, ribavirin + interferon α-2b, standard deviation 1488, 3783 U (SD 2646) in the 6 months before, P<0.03",1605 U
same,monthly mean dosage of the clotting factors in the 6-month period after the combined dosing period,"[6]; 5 patients with moderate or severe hemophilia, standard deviation 1528, 3783 U (SD 2646) in the 6 months before, P<0.06",1667 U
same,"Times of Bleeding Requiring Treatment, After Therapy","[6]; monthly mean bleeding frequency treated with clotting factors, after the combined dosing period of ribavirin and interferon α-2b, patient (Nos. 1, 2, 3, 5, 8)",0.7 and 0.0 and 1.6 and 4.1 and 2.2
same,"Times of Bleeding Requiring Treatment, During Therapy","[6]; monthly mean bleeding frequency treated with clotting factors, combined dosing period of ribavirin and interferon α-2b, patient (Nos. 1, 2, 3, 5, 8)",0.2 and 0.8 and 0.7 and 3.0 and 2.6
same,bleeding tendency in the combined dosing period compared with the interferon single dosing period,"[6]; patients Nos. 1, 2, 3 and 5, ribavirin + interferon α-2b",significantly reduced
